Our source for the Drug uptake values is ChEMBL document CHEMBL1156808, “Synthesis and characterization of iodinated tetrahydroquinolines targeting the G protein-coupled estrogen receptor GPR30” (J Med Chem, 2010).

The data set deals with Muscle tissue. Put plainly: Biodistribution in muscle of iv dosed NCr nu/nu mouse xenografted with GPR30 overexpressing human Hec50 cells after 2 hrs. As to conditions: in vivo. The class given is ADME, organism-based. In general terms: Xenograft models place foreign cells or tissue in a host animal.

As for `O=C(NCCc1ccc2c(c1)[C@@H]1C=CC[C@@H]1[C@H](c1cc3c(cc1Br)OCO3)N2)Nc1cccc([125I])c1`, the Drug uptake came to 0.52 % ID/g.
